# Measured values taken from the RepoRT retention time repository.
# Test: Waters ACQUITY UPLC BEH C18, 100 × 2.1 mm, 1.7 µm, 40 °C, 0.3 to 0.4 mL/min, estimated dead time 0.63 min; A: water + 0.1% formic acid; B: methanol + 0.1% formic acid; gradient (min/%B) 0/0.5 0.1/0.5 10/80 10.1/99.5 12/99.5
# Conditions: stereoisomer not certain
row,LC retention time [min],SMILES
1,3.59,CC(=O)OC1CC(COC2OC(CO)C(O)C(O)C2O)CNC12OC1CC3C4CCC5CC(OC6OC(CO)C(OC7OC(CO)C(OC8OCC(O)C(O)C8O)C(O)C7OC7OC(CO)C(O)C(O)C7O)C(O)C6O)CCC5(C)C4CCC3(C)C1C2C (stereo not given)
2,3.55,O=c1cc(-c2ccc(O)cc2)oc2c(C3OC(CO)C(O)C3O)c(O)c(C3OC(CO)C(O)C(O)C3O)c(O)c12 (stereo not given)
3,4.71,COc1cc(C=CC(=O)OC2C(OC3COC(c4c(O)cc5oc(-c6ccc(O)cc6)cc(=O)c5c4O)C(O)C3O)OC(CO)C(O)C2O)ccc1O (stereo not given)
4,8.11,CC(C)=CCc1cc(C2CC(=O)c3c(O)cc(O)cc3O2)ccc1O (stereo not given)
5,8.16,CC(=O)OC1CCC2(C)C(=CCC3C2CCC2(C)C3CC3OC4(CCC(C)CN4)C(C)C32)C1 (stereo not given)
6,7.39,COc1ccc(-c2cc(=O)c3c(OC)cc(OC)c(-c4cc(-c5cc(=O)c6c(OC)cc(OC)cc6o5)ccc4OC)c3o2)cc1
7,1.98,CC(O)(CC(=O)O)CC(=O)O
8,4.01,CC1=C2C(=O)C3C(CC=C4CC(OC5OC(CO)C(O)C(O)C5O)CCC43C)C2CCC12OC1CC(C)CNC1C2C (stereo not given)
9,2.71,NCCCCNC(=O)c1ccccc1
10,3.88,CC(=O)OC1CC(COC2OC(CO)C(O)C(O)C2O)CNC12OC1CC3C4CCC5CC(OC6OC(CO)C(OC7OC(CO)C(OC8OC=C(O)C(O)C8O)C(O)C7OC7OC(CO)C(O)C(O)C7O)C(O)C6O)CCC5(C)C4CCC3(C)C1C2C (stereo not given)
11,1.8,CCC(C)C(N)C(=O)NC(CO)C(=O)O (stereo not given)
12,3.08,COc1cc(C=CC(=O)NCCCCC(N)C(=O)O)ccc1O (stereo not given)
13,9.02,CCCCCC(=O)OC1C(OC2(CO)OC(CO)C(OC(C)=O)C2O)OC(CO)C(OC(=O)CCCC)C1OC(=O)CCCC (stereo not given)
14,7.96,CC1OC(OC2C(OC3CCC4(C)C(CCC5(C)C4CC=C4C6CC(C)(C)CCC6(C(=O)O)CCC45C)C3(C)CO)OCC(O)C2O)C(O)C(O)C1O (stereo not given)
15,7.85,CC1OC(OC2C(OC3C(OC4CCC5(C)C(CCC6(C)C5CC=C5C7CC(C)(C)CC(=O)C7(C)CCC56C)C4(C)CO)OC(C(=O)O)C(O)C3O)OCC(O)C2O)C(O)C(O)C1O (stereo not given)
16,4.95,CC1CCC(C(C)C2CCC3C4CC(=O)C5CC(O)CCC5(C)C4CCC23C)=NC1 (stereo not given)
17,5.08,CC(=O)OC1C(C)OC(OC2C(c3c(O)cc(O)c4c(=O)cc(-c5ccc(O)cc5)oc34)OC(CO)C(O)C2O)C(O)C1O (stereo not given)
18,3.65,O=c1c(-c2ccc(O)cc2)coc2cc(OC3OC(CO)C(O)C(O)C3O)ccc12 (stereo not given)
19,4.43,CS(=O)CCCCCCCCC(=O)O (stereo not given)
20,6.2,COc1cc(C(O)C(CO)Oc2c(OC)cc(-c3cc(=O)c4c(O)cc(O)cc4o3)cc2OC)ccc1O (stereo not given)
21,6.39,CC1(C)CCC2(C(=O)OC3OC(CO)C(O)C(O)C3O)CCC3(C)C(=CCC4C5(C)CCC(OC6OC(C(=O)O)C(OC7OC(CO)C(O)C7O)C(O)C6O)C(C)(C)C5CCC43C)C2C1 (stereo not given)
22,3.92,CC1OC(OCC2OC(Oc3cc(O)c4c(c3)OC(c3ccc(O)c(O)c3)CC4=O)C(O)C(O)C2O)C(O)C(O)C1O (stereo not given)
23,4.27,O=C1c2c(O)cc(O)cc2OC(c2ccc(O)c(O)c2)C1O (stereo not given)
24,4.73,O=C(CCc1ccc(O)cc1)c1c(O)cc(O)cc1OC1OC(CO)C(O)C(O)C1O (stereo not given)

row,LC retention time [min],SMILES
1,5.19,COc1ccc(-c2cc(=O)c3c(O)cc(OC4OC(COC5OC(C)C(O)C(O)C5O)C(O)C(O)C4O)cc3o2)cc1 (stereo not given)
2,2.86,COc1c(O)cc2c(c1O)C1OC(CO)C(O)C(O)C1OC2=O (stereo not given)
3,3.36,O=C(O)CC(=O)OCC1OC(Oc2c(-c3ccc(O)cc3)oc3cc(OC4OC(CO)C(O)C(O)C4O)cc(O)c3c2=O)C(O)C(O)C1O (stereo not given)
4,2.7,CSCC1OC(n2cnc3c(N)ncnc32)C(O)C1O (stereo not given)
5,8.57,CC1CCC2(OC1)OC1CC3C4CC=C5CC(O)CC(OC6OCC(O)C(O)C6OC6OC(C)C(O)C(O)C6O)C5(C)C4CCC3(C)C1C2C (stereo not given)
6,3.43,CS(=O)CCCCCCC#N (stereo not given)
7,3.3,O=c1cc(-c2ccc(O)cc2)oc2c(C3OC(CO)C(O)C(O)C3O)c(O)c(C3OC(CO)C(O)C(O)C3O)c(O)c12 (stereo not given)
8,3.29,CC(C)CC(N)C(=O)NC(CC(C)C)C(=O)O (stereo not given)
9,5.37,COc1cc(-c2oc3cc(O)cc(O)c3c(=O)c2O)cc(O)c1O
10,3.22,O=C1CC(c2ccc(O)c(O)c2)Oc2c1c(OC1OC(CO)C(O)C(O)C1O)cc(O)c2C1OCC(O)C(O)C1O (stereo not given)
11,5.87,CCC1(O)C(=O)OCc2c1cc1n(c2=O)Cc2cc3c([N+](=O)[O-])cccc3nc2-1 (stereo not given)
12,4.53,O=CC=Cc1ccc(O)cc1
13,4.76,COc1cc(C=CC=O)ccc1O
14,3.89,COc1ccc2c3c([nH]c2c1)C1CC2C(CC(O)C(OC)C2C(=O)O)CN1CC3 (stereo not given)
15,4.1,CC1OC(OCC2OC(Oc3c(-c4ccccc4O)oc4cc(O)cc(O)c4c3=O)C(O)C(O)C2O)C(O)C(O)C1O (stereo not given)
16,3.8,O=c1c(OC2OC(CO)C(O)C(O)C2OC2OC(CO)C(O)C(O)C2O)c(-c2ccc(O)cc2)oc2cc(O)cc(O)c12 (stereo not given)
17,5.43,COc1ccc(-c2oc3c(CC=C(C)C)c(OC4OC(CO)C(O)C(O)C4O)cc(O)c3c(=O)c2OC2OC(C)C(O)C(O)C2O)cc1 (stereo not given)
18,4.24,COc1cc(C=CC(=O)O)ccc1O
19,2.4,CC(CSCC(NC(=O)CCC(NCC1(O)OCC(O)C(O)C1O)C(=O)O)C(=O)NCC(=O)O)C(=O)O (stereo not given)
20,4.38,CC1OC(OC2C(Oc3cc(O)c4c(c3)OC(c3ccc(O)cc3)CC4=O)OC(CO)C(O)C2O)C(O)C(O)C1O (stereo not given)
21,3.39,O=C(O)CC1CCC(=O)C1CC=CCCO (stereo not given)
22,4.67,CC1OC(Oc2c(-c3ccc(O)c(O)c3)oc3cc(O)cc(O)c3c2=O)C(OC2OC(COC(=O)C=Cc3ccc(O)cc3)C(O)C(O)C2O)C(O)C1O (stereo not given)
23,3.47,Cc1ccc2ccc3ccc(C)nc3c2n1
24,3.82,O=C(O)c1cc(O)c2c(c1)C(C1c3cc(C(=O)O)cc(O)c3C(=O)c3c(OC4OC(CO)C(O)C(O)C4O)cccc31)c1cccc(OC3OC(CO)C(O)C(O)C3O)c1C2=O (stereo not given)

row,LC retention time [min],SMILES
1,5.77,CCC1C(=O)OCc2c1cc1n(c2=O)Cc2cc3ccccc3nc2-1 (stereo not given)
2,4.34,CC(CCC1(O)OC2CC3C4CC=C5CC(O)CC(OC6OC(CO)C(O)C(O)C6O)C5(C)C4CCC3(C)C2C1C)COC1OC(CO)C(O)C(O)C1OC1OC(C)C(O)C(O)C1O (stereo not given)
3,3.69,C=CC1C(OC2OC(CO)C(O)C(O)C2O)OC=C(C(=O)O)C1Cc1nccc2c1[nH]c1ccc(O)cc12 (stereo not given)
4,4.76,COc1cc(CC(CO)C(CO)Cc2ccc(O)c(OC)c2)ccc1O (stereo not given)
5,4.96,COc1cc2c(cc1OC)-c1cc3ccc(OC)c(OC)c3c[n+]1CC2
6,5.25,CCCCCCCCNC(O)CCc1ccc(O)c(OC)c1 (stereo not given)
7,8.02,COc1cc(C=Cc2ccc(O)cc2)cc(OC)c1
8,4.55,CCCCCCCCCCCCC(O)C(O)C(COC1OC(CO)C(O)C(O)C1O)NC(C)=O (stereo not given)
9,5.36,CC1C(=O)OC2C(O)C34C5CC(C(C)(C)C)C36C(OC(=O)C6O)OC4(C(=O)O5)C12O (stereo not given)
10,3.83,O=C(C=Cc1ccc(O)cc1)NCCCCNCCCNC(=O)C=Cc1ccc(O)cc1
11,5.15,O=c1c(-c2ccc(O)cc2)coc2cc(O)ccc12
12,7.47,O=C1CC(c2ccccc2)Oc2cc(O)cc(O)c21 (stereo not given)
13,7.82,CCCCCCCCCCCCCCC(O)C(O)C(N)CO (stereo not given)
14,2.18,CCCC(=O)OC(CC(=O)[O-])C[N+](C)(C)C (stereo not given)
15,5.56,CC1OC(OC2CC(C)(C)CC3C4=CCC5C6(C)CCC(OC7OC(C(=O)O)C(O)C(O)C7OC7OC(CO)C(O)C(O)C7OC7OCC(O)C(O)C7O)C(C)(CO)C6CCC5(C)C4(C)CCC23C)C(O)C(O)C1O (stereo not given)
16,2.36,NC(CCC(=O)NC(Cc1ccc(O)cc1)C(=O)O)C(=O)O (stereo not given)
17,3.7,CC1CCC2C(C)C3C(CC4C5CC=C6CC(O)CCC6(C)C5CC(O)C43CO)N2C1 (stereo not given)
18,10.4,CC1(C)C=CC2(C)CCC3(C)C(=CCC4C5(C)CCC(O)C(C)(CO)C5CCC43C)C2C1 (stereo not given)
19,5.23,COc1c(CO)c(OC2OC(COC3OCC(O)C(O)C3O)C(O)C(O)C2O)cc2c1C(=O)c1ccccc1C2=O (stereo not given)
20,6.72,CCOC(=O)Oc1c(OC)cc(C(=O)OC2CC3CN4CCc5c([nH]c6cc(OC)ccc56)C4CC3C(C(=O)OC)C2OC)cc1OC (stereo not given)
21,8.93,CC(C)=CCc1c(O)ccc(C(=O)C=Cc2ccc(O)cc2)c1O
22,9.49,CCCCCC(=O)OC1C(OC2(CO)OC(CO)C(OC(C)=O)C2O)OC(CO)C(OC(=O)CCCC)C1OC(=O)CCCCC (stereo not given)

row,SMILES,LC retention time [min]
1,CCCCCCCCC=CCCCCCCCC(=O)OCC(O)COP(=O)(O)OCCN (stereo not given),10.2
2,CS(=O)CCCCN=C=S (stereo not given),3.69
3,CCC12C=CCN3CCC4(C(=C(C(=O)OC)C1)Nc1ccccc14)C32 (stereo not given),5.2
4,CN1Cc2c(ccc3c2OCO3)C2C(O)Cc3cc4c(cc3C21)OCO4 (stereo not given),4.53
5,COc1ccc2c(c1O)-c1c(OC)c(OC)cc3c1C(C2)N(C)CC3 (stereo not given),3.92
6,C=C1C2CC3(C1O)C1CC4C5(C)CCC(O)C4(C1N(CC)C5)C3CC2O (stereo not given),3.05
7,CC=C1CN2C3CC1C(CO)C2Cc1c3[nH]c2cc(OC)ccc12 (stereo not given),3.68
8,CCC1=CC2CN3CCc4c([nH]c5ccccc45)C(C(=O)OC)(C2)C13 (stereo not given),5.04
9,C=C1CC(=CC)C(=O)OC2CCN3CC=C(COC(=O)C1(C)O)C23 (stereo not given),3.45
10,CC=C1CC(C)C(O)(CO)C(=O)OCC2=CCN3CCC(OC1=O)C23 (stereo not given),3.23
